Where only a bound is given, the exact number is not on record here.

C5aR, sequence (P21730 whole entry): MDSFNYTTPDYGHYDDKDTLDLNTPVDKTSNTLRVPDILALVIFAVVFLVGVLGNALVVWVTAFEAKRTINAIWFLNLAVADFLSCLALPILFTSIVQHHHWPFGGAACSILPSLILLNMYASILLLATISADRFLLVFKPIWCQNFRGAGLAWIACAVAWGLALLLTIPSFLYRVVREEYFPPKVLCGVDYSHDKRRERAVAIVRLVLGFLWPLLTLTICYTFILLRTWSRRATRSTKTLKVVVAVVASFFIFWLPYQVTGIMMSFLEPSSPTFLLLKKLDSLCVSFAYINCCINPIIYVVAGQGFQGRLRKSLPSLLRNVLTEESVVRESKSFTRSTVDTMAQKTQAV

The assay concerns the target C5aR (Homo sapiens (Human), UniProt P21730). In words: Chemotaxis assay using U937 cells (C5aR mediated migration). Particulars: read-out: Mig IC50. The class given is cell-based. The method, boiled down:
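Migration toward 0.03 nM C5a, mixed with varying compound in the lower chamber (HBSS with 1% FBS), was measured over 1.5 h at 37° C through 5 μm filters. Upper chamber held 100,000 U937 cells treated overnight with 0.5 mM cAMP; migrated cells quantified by counts or CyQuant for IC50, SDF-1α as specificity control.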
Consider `CCc1cccc(CC)c1-n1nc2c(c1-c1cc(F)c(NC(N)=O)cc1C)CN(Cc1ccc(C(F)(F)F)cc1C(F)(F)F)CC2` [Example 1.068], for which the IC50 is ≤ 5 nM. For the compound `CCc1cccc(CC)c1-n1nc2c(c1-c1ccc(NC(N)=O)c(F)c1)CN(C(C)(C)CC)CC2` [Example 1.221], the IC50 lay within 50 to 500 nM. Then `Cc1cccc(OCC(C)C)c1-n1nc2c(c1-c1ccc(NC(N)=O)cc1)CN(Cc1ccc(Cl)cc1Cl)CC2` [Example 1.328], with ≤ 5 nM; and `CCc1cccc(CC)c1-n1nc2c(c1-c1cc(F)c(NC(N)=O)cc1F)CN(C(=O)C1CCOCC1)C(C)(C)C2` [Example 1.029], with 5 to 50 nM; and `Cc1cccc(F)c1-n1nc2c(c1-c1cc(F)c(NC(N)=O)cc1F)CN(c1ncc(Cl)cc1Cl)CC2` [Example 1.176], with ≤ 5 nM. Then `Cc1cccc(OCC(C)C)c1-n1nc2c(c1-c1ccc(NC(N)=O)cc1)CN(c1ccc(F)cc1C(C)C)CC2` [Example 1.419], with 5 to 50 nM; and `CCc1cccc(CC)c1-n1nc2c(c1-c1cc(F)c(NC(N)=O)cc1F)CN(Cc1ccc(C(F)(F)F)cc1)C(C)(C)C2` [Example 1.017], with ≤ 5 nM.

For the compound `CCc1cccc(CC)c1-n1nc2c(c1-c1cc(F)c(NC(N)=O)cc1F)CN(C(=O)OC(C)(C)C)[C@H](C)C2` [Example 1.025], the IC50 is ≤ 5 nM. On to `Cc1cccc(OCC(C)C)c1-n1nc2c(c1-c1ccc(NC(N)=O)cc1)CN(CC(C)(C(F)(F)F)C(F)(F)F)CC2` [Example 1.344], for which the 50% inhibitory concentration (IC50) is ≤ 5 nM. Turning to `Cc1cc(NC(N)=O)ccc1-c1c2c(nn1-c1c(C)cccc1OCC(C)C)CCN(c1cc(C(C)(C)C)ccc1C)C2` [Example 1.441], the IC50 was ≤ 5 nM. Consider `Cc1ccccc1CN1CCc2nn(-c3c(C)cccc3OCC(C)C)c(-c3ccc(NC(N)=O)cc3)c2C1` [Example 1.371], for which the IC50 fell in the range of 5 to 50 nM. Then `CCc1cccc(CC)c1-n1nc2c(c1-c1ccc(NC(N)=O)cc1)CN(Cc1ccc(Cl)cc1C(F)(F)F)CC2` [Example 1.278], with 5 to 50 nM; and `C=C(C)c1cnc(N2CCc3nn(-c4c(C)cccc4OCC(C)C)c(-c4ccc(NC(N)=O)c(F)c4)c3C2)c(F)c1` [Example 1.220], with ≤ 5 nM.

As for `Cc1cccc(C)c1-n1nc2c(c1-c1ccc(CO)cc1)CN(c1ccccc1C(C)C)CC2` [Example 1.467], the IC50 was 50 to 500 nM. Then `Cc1cccc(C)c1-n1nc2c(c1-c1ccc(C(N)=O)cc1)CN(c1ncc(Cl)cc1Cl)CC2` [Example 1.109], with 50 to 500 nM; and `CCc1cccc(CC)c1-n1nc2c(c1-c1cc(F)c(NC(N)=O)cc1F)CN(Cc1ccc(C(F)(F)F)cc1)CC2` [Example 1.065], with ≤ 5 nM. In the case of `Cc1cc(NC(N)=O)c(F)cc1-c1c2c(nn1-c1c(C)cccc1OCC(C)C)CCN(c1ncc(C(C)C)cc1F)C2` [Example 1.129] it was ≤ 5 nM; in that of `CCc1cccc(CC)c1-n1nc2c(c1-c1ccc(NC(N)=O)cc1)CN(Cc1cc(Cl)ccc1Cl)CC2` [Example 1.291], 5 to 50 nM.

For the compound `CCc1cccc(CC)c1-n1nc2c(c1-c1cc(F)c(NC(N)=O)cc1F)CN(CC1CCOCC1)CC2` [Example 1.019], the 50% inhibitory concentration (IC50) was 5 to 50 nM.

For `Cc1cccc(OCC(C)C)c1-n1nc2c(c1-c1ccc(NC(N)=O)cc1)CN(C(C)c1ccc(C(F)(F)F)cc1)CC2` (stereo not drawn) [Example 1.306], the IC50 is ≤ 5 nM.

For the compound `COc1cc(-c2c3c(nn2-c2c(C)cccc2OCC(C)C)CCN(c2ncc(C(F)(F)F)cc2F)C3)ccc1NC(N)=O` [Example 1.267], the IC50 was 5 to 50 nM. Consider `Cc1cccc(OCC(C)C)c1-n1nc2c(c1-c1ccc(NC(N)=O)c(F)c1)CN(c1ncc(C(F)(F)F)cc1F)CC2` [Example 1.288], for which the IC50 was ≤ 5 nM. On to `Cc1cc(N2CCc3nn(-c4c(C)cccc4OCC(C)C)c(-c4cc(F)c(NC(N)=O)cc4F)c3C2)ncc1Cl` [Example 1.177], for which the IC50 was ≤ 5 nM. Then `COc1cccc(C)c1-n1nc2c(c1-c1ccc(NC(C)=O)cc1)CN(c1ccccc1C(C)C)CC2` [Example 1.483], with > 500 nM; and `Cc1cccc(OCC(C)C)c1-n1nc2c(c1-c1ccc(NC(N)=O)cc1)CN(CC(C(F)(F)F)C(F)(F)F)CC2` [Example 1.346], with 5 to 50 nM; and `Cc1cc(Cl)cnc1N1CCc2nn(-c3c(C)cccc3OCC(C)C)c(-c3cc(F)c(NC(N)=O)cc3F)c2C1` [Example 1.168], with ≤ 5 nM.

As for `Cc1cccc(C)c1-n1nc2c(c1-c1cc(F)c(NC(N)=O)cc1F)CN(Cc1ccc(C(F)(F)F)cc1C(F)(F)F)CC2` [Example 1.060], the half-inhibitory concentration (IC50) was in the range of 5 to 50 nM. In the case of `CCc1cccc(CC)c1-n1nc2c(c1-c1cc(F)c(NC(N)=O)cc1F)CN(Cc1ccc(Cl)cc1C(F)(F)F)[C@@H](C)C2` [Example 1.015] it was ≤ 5 nM; in that of `CCc1cccc(CC)c1-n1nc2c(c1-c1ccc(NC(N)=O)cc1)CN(C(c1ccccc1C(F)(F)F)C(C)C)CC2` (stereo not drawn) [Example 1.281], ≤ 5 nM; in that of `Cc1cccc(OCC(C)C)c1-n1nc2c(c1-c1ccc(N)cc1)CN(c1ccccc1C(C)(C)C)CC2` [Example 1.455], 5 to 50 nM.

These data come from patent publication US11478460B2, “Diaryl substituted 6,5-fused ring compounds as C5aR inhibitors” (CHEMOCENTRYX, INC., priority 2017, dated 2022).
